The subject of one experiment is birds. The following applies: '678 patent; cited from earlier work.
The subject of experiment [1] is red-winged blackbirds. The following applies: anthraquinone only, cited from earlier work.
Experiment [2] relates to red-winged blackbirds. Description: Threshold AQ concentration previously established for red-winged blackbirds (Werner et al. 2009). It counts as in vivo, red-winged blackbirds (Agelaius phoeniceus). The following applies: 80% repellency, anthraquinone only, interpolated between the 70% and 100% values. On the procedure:
The concentration response of AQ plus TiO2 feeding cue was tested. This experiment was designed to establish a concentration response relationship of AQ plus 0.2% TiO2 treated sunflower seeds for blackbirds in captivity. The experiment was also designed to establish a threshold concentration of AQ necessary for blackbird feeding repellency when reduced by varying the concentration of AQ based repellent combined with a TiO2 feeding cue. This optimized AQ concentration was expected to be less than the threshold AQ concentration previously established for red-winged blackbirds done by Werner et al. (2009) and shown in column 2 of Table 1. Daily sunflower consumption was measured throughout the pretreatment and test phases of the experiment as previously described. Greater than 80% repellency during a captive feeding trial is the operational level for an effective repellent as has been documented in the field using AQ repellents, see Werner et al. (2009) and (2011).

With `O=C1c2ccccc2C(=O)c2ccccc21` [Anthraquinone Only, 9,10-anthraquinone], the “AQ concentration to achieve 74% repellency” value in the experiment with birds was 1778 ppm. Also, the “[AQ] ppm by weight for RWBL Repellency 20%” value in the experiment with red-winged blackbirds [1] (20% repellency) is listed as 193 (222*20/23) ppm by weight. The “[AQ] ppm by weight for RWBL Repellency 35%” value in the experiment with red-winged blackbirds [1] (35% repellency) is on record as 572 (556*34/35) ppm by weight. Besides, the “[AQ] ppm by weight for RWBL Repellency 50%” value in the experiment with red-winged blackbirds [1] (50% repellency) is 538 (560*50/52) ppm by weight. The “[AQ] ppm by weight for RWBL Repellency 70%” value with red-winged blackbirds [1] (70% repellency) is given as 1682 (1778*74/70) ppm by weight. In the experiment on red-winged blackbirds [1] (100% repellency), the “[AQ] ppm by weight for RWBL Repellency 100%” value is recorded as 1846 (1994*100/108) ppm by weight. Moreover, the entries for the “[AQ] ppm by weight for RWBL Repellency 80% (expected AQ concentration)” value with red-winged blackbirds [2], in the experiment with red-winged blackbirds [2] (listed as AQ) and in the experiment on red-winged blackbirds [2] (listed as straight AQ) were 1737 ((1846 − ppm by weight, 1737 ppm by weight and 1737 ppm by weight, respectively.

The values are drawn from patent publication US20160157477A1, “USE OF VISUAL CUES TO ENHANCE BIRD REPELLENT COMPOSITIONS” (ARKION LIFE SCIENCES, LLC, priority 2014, published 2016).
